Where two headings read alike, the source gives them in different places.
Legend:
[1] = test system: testicular tumors; parameters: method as in doi:10.2174/2210298102666220404102936; settings: cited from earlier work
[2] = Release of pyridine ligand from synthesized complex followed by 1H NMR; assay type: physicochemical
Description: The rate of the release of the monodentate ligand from the synthesized mixed-ligand complex is also of interest. Although a mixed-ligand complex with low stability should release its monodentate ligand easily, kinetic inertness has a major effect on reaching the equilibrium state. In contrast to their non-organometallic octahedral counterparts, half-sandwich Ru(II) and Rh(III) complexes have faster ligand exchange reactions.

[3] = Stability of mixed-ligand complex in methanol (1H NMR in CD3OD); assay type: physicochemical
Description: ^1H NMR (CD3OD, ppm, 500 MHz, standard: δ 3.31 (solvent residual peak)): δ 9.76 (dd, J = 5.2 Hz, 0.87 Hz, 2H, phen-H^2,9), δ 8.99 (dd, J = 8.3 Hz, 1.2 Hz, 2H, phen-H^4,7), δ 8.49 (d, J = 5.2 Hz, 2H, Py-H^2,6), δ 8.40 (dd, J = 8.2 Hz, 5.2 Hz, 2H, phen-H^3,8), δ 8.25 (s, 2H, phen-H^5,6), δ 7.91 (tt, J = 7.7 Hz, 1.4 Hz, 1H, Py-H^4), δ 7.46 (t, J = 7.1 Hz, 2H, Py-H^3,5), δ 1.75 (s, 15H, Cp*-H^methyl). Deuteration of Cp* is visible and highlighted in the spectrum in Figure S9. A small amount (<5%) of dissociated complex is visible in equilibrium with the complex, indicating the low stability of the mixed-ligand complex even in methanol.

[4] = Proton dissociation constants of the coordinated water in [M(arene)(N,N/O)(H2O)]2+/+ complexes (UV-vis titration); settings: I = 0.10 M (KCl); t = 25.0 °C; UV-vis
Description: The proton dissociation of the aqua ligand in the [M(arene)(N,N/O)(H2O)]^2+/+ complexes (Scheme 2) results in the inert mixed-hydroxido species (general formula: [M(arene)(N,N/O)(OH)]^+/0).

[5] = Kinetics of mixed-ligand complex formation followed by UV-vis; assay type: physicochemical; settings: complex:1-methylimidazole 1:2, pH 7.4 (phen, Figure 2) or 5.94 (en, Figure S23)
Procedure: Firstly, the reactions were followed by UV-vis spectrometry, and significant changes in the charge transfer bands were observed. Based on these preliminary measurements, the waiting time needed prior to measurement was determined. Generally, the reaction was faster for the RhCp* complexes than for the Ru(p-cym) analogs. […] The [Ru(p-cym)(en/phen)(H2O)]^2+ complexes reached chemical equilibrium within only hours, while the reaction between 1-methylimidazole and [RhCp*(phen)(H2O)]^2+ (Figure 2) or [RhCp*(en)(H2O)]^2+ (Figure S23) was completed within 90 min. However, the fractions of the mixed-ligand complexes cannot be determined from these spectral changes in the chemical equilibrium; thus, further experiments were carried out to determine the formation constants.
Figure 2 (a) Time-dependent UV-vis spectra of the c([RhCp*(phen)(H2O)]^2+):c(1-methylimidazole) = 1:2 mixture under physiological conditions (pH = 7.4 (PBS’ buffer)). (b) Time dependence of the absorbance values at 400 nm. {c([RhCp*(phen)(H2O)]^2+) = 200 μM; c(1-methylimidazole) = 400 μM; pH = 7.40 (PBS’); t = 25 °C; ℓ = 1 cm}.

[6] = physchem
Procedure: (§6) pH-potentiometric measurements were performed to determine the protonation constants (Kp) of the ligands and the concentration of the stock solutions. These measurements were carried out at 25.0 ± 0.1 °C in water in a pH range between 2.0 and 11.5, titrating with carbonate-free KOH solution (0.10 M). […] A Thermo Scientific 0710A0 benchtop pH meter (Waltham, MA, USA), equipped with a Metrohm combined electrode (type 6.0234.100) and a Metrohm 665 Dosimat burette (Metrohm, Herisau, Switzerland) was used for these measurements. […] The initial volume of the samples was 10.0 mL, and the ligand concentration was 2.0 mM in the samples. Samples were degassed by bubbling purified argon prior to and during the measurements. The computer program Hyperquad2013 [28] was utilized to determine the protonation constants of the ligands and concentration.
(§7) The protonation constants (Kp) were determined by pH-potentiometric and UV-vis spectrophotometric titrations in the presence of 0.1 M KCl (see Table 1 and Figures S21 and S22 for examples).

[7] = cited from earlier work
[8] = Fractions of mixed-ligand complexes at 1:1 ratio at pH 6.0 and 7.4 by 1H NMR (screening of monodentate ligands); assay type: physicochemical; settings: pH 6.0 and 7.4
Procedure: In the preliminary studies, the co-ordination ability of the monodentate ligands to the [RhCp*(en)(H2O)]^2+, [RhCp*(phen)(H2O)]^2+, and [RhCp*(8HQH-1)(H2O)]^+ complexes was tested (Chart 2). The samples contained the aqua complex and the monodentate ligand in a 1:1 ratio and were buffered at pH = 6.0 and pH = 7.4. For an ideal drug candidate, all of the monodentate ligand would be bound at pH 7.4; thus, the mixed-ligand complex would be present exclusively, which dissociates completely at pH 6.0.
Figure 1 Fractions of the formed mixed-ligand [RhCp*(N,N/O)(N)]^2+/+ complexes at c(complex):c(monodentate ligand) = 1:1 ratio measured at pH = 6.0 (full bars) and 7.4 (checkered bars). Fractions were determined by the integration of the peaks in the ^1H NMR spectra. The percentage values above the columns show the difference in the fractions of the mixed-ligand complex at the two pH values. {c([RhCp*(phen)(H2O)]^2+) = c([RhCp*(en)(H2O)]^2+) = 1 mM; c([RhCp*(8HQH−1)(H2O)]^+) = 500 μM; 10% D2O; pH = 6.0 or 7.4 (PBS’); t = 25.0 °C}. […] The percentages were assigned to (N,N) = en, (N,N) = phen and (N,O) = 8HQH-1 by bar colour only.

[9] = I = 0.10 M (KCl); t = 25.0 °C; pH-potentiometry (benzimidazole: UV-vis)
Procedure: as §6, §7

[10] = test system: E. coli ATCC 25922 (sensitive); assay: Antibacterial assay, MIC in 96-well plates at different pH; assay type: cell-based; settings: Escherichia coli
Procedure, shortened: (§1)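 Broth microdilution MIC per CLSI in Mueller Hinton broth, with overnight culture diluted 10,000-fold as inoculum. Each strain and compound tested at pH 5, 6, 7 and 8, in triplicate.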

[11] = test system: S. aureus 272123 (MRSA); assay: as above; assay type: cell-based; settings: Staphylococcus aureus
Procedure, shortened: as §1

[12] = test system: E. coli 32313 (resistant); assay: as above; assay type: cell-based; settings: Escherichia coli
Procedure, shortened: as §1

[13] = test system: S. aureus ATCC 25923 (methicillin-susceptible); assay: as above; assay type: cell-based; settings: Staphylococcus aureus
Procedure, shortened: as §1

[14] = test system: Colo320 human colon adenocarcinoma cell line (doxorubicin-resistant); assay: MTT assay, cytotoxicity at pH 6 and 7; assay type: cell-based; settings: Homo sapiens, COLO 320, Colo320, 72 h incubation, read-out: IC50
Procedure: (§2) All cell culture reagents were obtained from Sigma-Aldrich (Merck KGaA, Darmstadt, Germany) and plasticware from Sarstedt (Nümbrecht, Germany). Human colonic adenocarcinoma cell lines Colo205 (catalog number: ATCC-CCL-222) and its doxorubicin-resistant counterpart Colo320 (catalog number: ATCC-CCL-220.1) were purchased from LGC Promochem (Teddington, UK). The cells were cultured in RPMI 1640 medium supplemented with 10% heat-inactivated fetal bovine serum, 2 mM L-glutamine, 1 mM sodium pyruvate, and 100 mM HEPES buffer, adjusting the pH to 6.0 or 7.0. The cells were incubated at 37 °C in a 5% CO2–95% air atmosphere. The semiadherent human colon cancer cells were detached with Trypsin-Versene solution for 5 min at 37 °C.
(§3) The solutions were freshly prepared prior to measurements (see Section 2.1). […] Firstly, these samples were diluted in complete culture medium; then, two-fold serial dilutions of the compounds were prepared in 100 μL of RPMI 1640, horizontally. The semiadherent colonic adenocarcinoma cells were treated with Trypsin-Versene solution. They were adjusted to a density of 1 × 10^4 cells in 100 μL of RPMI 1640 medium and were added to each well, with the exception of the medium control wells. The final volume of the wells containing compounds and cells was 200 μL. Samples were triplicated. The pH of the medium was adjusted to 6.0 or 7.0.
(§4) The culture plates were incubated at 37 °C for 72 h; at the end of the incubation period, 20 μL of MTT solution (from a stock solution of 5 mg/mL) was added to each well. After incubation at 37 °C for 4 h, 100 μL of SDS solution (10% in 0.01 M HCI) was added to each well, and the plates were further incubated at 37 °C overnight. Cell growth was determined by measuring the optical density (OD) at 540/630 nm with a Multiscan EX ELISA reader (Thermo Labsystems, Cheshire, WA, USA). […] Curves were fitted using GraphPad Prism software (2022, version 9.4.1, Graphpad Software (LLC) d.b.a Dotmatics, San Diego, CA, USA) using the sigmoidal dose–response model (comparing variable and fixed slopes).
(§5) The pH-dependent solution speciation of the selected mixed-ligand complexes is an important feature in the hypothesized mechanism of action, and the modeling of acidosis is necessary for the in vitro anticancer assays. In order to find out the cytotoxicity difference based on the pH of the medium, cytotoxic activity was determined at pH 6 and 7 by MTT assay in two human colon adenocarcinoma cell lines (doxorubicin-sensitive Colo205 and doxorubicin-resistant Colo320). […] The mixed-ligand complexes were prepared prior to the measurements, as was already described in Section 2.1. With this method, the effect of the different counter ions could be avoided, and a more adequate comparison of the mixed-ligand complexes could be conducted.

[15] = test system: Colo205 human colon adenocarcinoma cell line (doxorubicin-sensitive); assay: MTT assay, cytotoxicity at pH 6 and 7; assay type: cell-based; settings: Homo sapiens, COLO 205, Colo205, 72 h incubation, read-out: IC50
Procedure: as §2, §3, §4, §5

N.N.[Cl][Pt][Cl] [Cisplatin]
cure rates [1]: above 95%

Cc1c(C)c(C)[c-](C)c1C.NCCN.O=S(=O)([O-])C(F)(F)F.O=S(=O)([O-])C(F)(F)F.[Rh+3].c1ccncc1 [Complex 2]
monodentate ligand dissociated ([2]; pH 6.0, after 5 min): ~ 75% | released monodentate ligand at chemical equilibrium ([2]; pH 6.0, after half an hour): ~ 94%

Cc1c(C)c(C)[c-](C)c1C.O=S(=O)([O-])C(F)(F)F.O=S(=O)([O-])C(F)(F)F.[Rh+3].c1ccncc1.c1cnc2c(c1)ccc1cccnc12 [Complex 4]
dissociated complex in equilibrium with the complex [3]: < 5%

Cc1c(C)c(C)[c-](C)c1C.NCCN.O.[Rh+3] [[RhCp*(en)(H2O)]2+]
pKa of the coordinated water molecule [4]: 10.6±0.1 | time to completion of the reaction with 1-methylimidazole [5]: ≤ 90 min

Cc1c(C)c(C)[c-](C)c1C.O.[Rh+3].c1cnc2c(c1)ccc1cccnc12 [[RhCp*(phen)(H2O)]2+]
pKa of the coordinated water molecule [4]: 10.05±0.01 | time to completion of the reaction with 1-methylimidazole [5]: ≤ 90 min

c1ccc2[nH]cnc2c1 [benzimidazole]
pKa ([6]; water with 0.10 M KCl): 5.44 ± 0.01 | logKp (= pKa), literature data [7]: 5.54 [44]

CN [methylamine]
logKp (= pKa), literature data [7]: 10.51 [47] | interaction (co-ordination) with the RhCp* aqua complexes [8]: no interaction was found | logKp (= pKa) [9]: 10.58 ± 0.03

Cn1ccnc1 [mim, 1-methylimidazole, reference compound]
pKa [6]: 7.14 ± 0.01 | MIC ([10]; ATCC25922, 24 h, E. coli sensitive, pH 5, after one day, read-out: MIC): > 100 µM | MIC ([10]; ATCC25922, 24 h, E. coli sensitive, pH 6, after one day, read-out: MIC): > 100 µM | MIC ([10]; ATCC25922, 24 h, E. coli sensitive, pH 7, after one day, read-out: MIC): > 100 µM | MIC ([10]; ATCC25922, 24 h, E. coli sensitive, pH 8, after one day, read-out: MIC): > 100 µM | MIC ([10]; ATCC25922, any of the bacterial strains, E. coli, read-out: MIC (no antibacterial effect)): > 100 µM | MIC ([11]; 24 h, pH 5, after one day, read-out: MIC): > 100 µM | MIC ([11]; 24 h, pH 6, after one day, read-out: MIC): > 100 µM | MIC ([11]; 24 h, pH 7, after one day, read-out: MIC): > 100 µM | MIC ([11]; 24 h, pH 8, after one day, read-out: MIC): > 100 µM | MIC ([11]; any of the bacterial strains, read-out: MIC (no antibacterial effect)): > 100 µM | MIC ([12]; 24 h, E. coli resistant, pH 5, after one day, read-out: MIC): > 100 µM | MIC ([12]; 24 h, E. coli resistant, pH 6, after one day, read-out: MIC): > 100 µM | MIC ([12]; 24 h, E. coli resistant, pH 7, after one day, read-out: MIC): > 100 µM | MIC ([12]; 24 h, E. coli resistant, pH 8, after one day, read-out: MIC): > 100 µM | MIC ([12]; any of the bacterial strains, resistant E. coli, read-out: MIC (no antibacterial effect)): > 100 µM | MIC ([13]; ATCC25923, 24 h, S. aureus sensitive, pH 7, after one day, read-out: MIC): > 100 µM | MIC ([13]; ATCC25923, 24 h, S. aureus sensitive, pH 8, after one day, read-out: MIC): > 100 µM | MIC ([13]; ATCC25923, any of the bacterial strains, S. aureus, read-out: MIC (no antibacterial effect)): > 100 µM | IC50 ([14]; pH 6): > 100 µM | IC50 ([14]; pH 7): > 100 µM | IC50 ([15]; pH 6): > 100 µM | IC50 ([15]; pH 7): > 100 µM

Reference: article PMC9964319, “Half-Sandwich Rhodium Complexes with Releasable N-Donor Monodentate Ligands: Solution Chemical Properties and the Possibility for Acidosis Activation” (Pharmaceutics, 2023)
